The target in assay [1] is human GABAA α2β2γ1 receptor (Homo sapiens (Human), UniProt P47869+Q8N1C3). The assay can be described thus: Radioligand binding assay for γ1-containing GABAA subtypes, [3H]RO7239181 competition (α2β2γ1).
Assay [2] addresses human GABAA α1β3γ2 receptor (Homo sapiens (Human), UniProt P14867+P18507). In words: Radioligand binding assay for γ2-containing GABAA subtypes, [3H]Flumazenil competition (α1β3γ2). To be noted: for γ2/γ1 Selectivity Ratio: Ki α1β3γ2 (nM)/Ki α2β2γ1 (nM); for LogSel: Log[Ki α1β3γ2 (nM)/Ki α2β2γ1 (nM)].
Assay [3] addresses α2β2γ1 GABAA receptor subtype (Homo sapiens (Human), UniProt P47869+Q8N1C3). In words: Two-electrode voltage clamp electrophysiology in Xenopus oocytes expressing GABAA receptors (modulation of GABA EC20 current). In kind it is cell-based. To be noted: for Efficacy (GABA)%: % modulation of GABA EC20 = 100*(Fold increase-1), α2β2γ1 oocytes, compound at approx. 30-fold Ki; for Fold increase h-GABA-A α2β2γ1 oocyte @ 30-fold Ki: Xenopus oocytes expressing α2β2γ1, compound at approx. 30-fold its Ki α2β2γ1, GABA EC20 current. The gist of the method: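 Two-electrode voltage clamp at −80 mV, room temperature, 3-5 days after mRNA injection into oocytes. GABA applied at EC20 for 1.5 min, twice, with compound during second application; at least 3 oocytes per concentration. Efficacy = extremum of point-by-point current ratio, expressed as 100×(fold increase−1).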
Background: In two-electrode clamp one electrode senses voltage and the other passes current.

Assay [4] has as its target human GABAA α5β2γ1 receptor (Homo sapiens (Human), UniProt P31644+Q8N1C3). In words: Radioligand binding assay for γ1-containing GABAA subtypes, [3H]RO7239181 competition (α5β2γ1).
Where [5] appears, read: Ki h-GABAA α2β2γ1, [3H]RO7239181 competition binding, human GABAA α2β2γ1.
[6] abbreviates: Ki h-GABAA α2β2γ1, displacement of [3H]RO7239181, membranes of HEK293F cells expressing human receptors, means of two determinations.

Molecules are shown by their SMILES.

This is an account of results in US12365687B2 (Hoffmann-La Roche Inc., priority 2021, dated 2025).

In the case of `C[C@@H]1N=C(c2c(F)cccc2F)c2c(ccc(Cl)c2Cl)-n2nc(C(N)=O)nc21` [Example 35, (4S)-7,8-dichloro-6-(2,6-difluorophenyl)-4-methyl-4H-[1,2,4]triazolo[1,5-a][1,4]benzodiazepine-2-carboxamide], the affinity in assay [1] (setting [5]) corresponds to a Ki of 6.5 nM. In assay [1] (setting [6]), the Ki (commonly the dissociation constant of the complex between target and ligand, obtained from inhibition or displacement) was found to be 6.53 nM. Further, in assay [2], the affinity, expressed as Ki, was 778 nM; the “γ2/γ1 Selectivity Ratio” value is recorded as 119.1; the LogSel was found to be 2.08. In addition, in assay [3], the “Efficacy (GABA)%” value is on record as 67% and the “Fold increase h-GABA-A α2β2γ1 oocyte @ 30-fold Ki” value turned out to be 1.67. For the same molecule, the Ki in assay [4] turned out to be 0.73 nM.
For the molecule `COC1CN(C(=O)c2nc3n(n2)-c2ccc(C(F)(F)F)c(Cl)c2C(c2c(F)cccc2F)=NC3)C1` [Example 37, [7-chloro-6-(2,6-difluorophenyl)-8-(trifluoromethyl)-4H-[1,2,4]triazolo[1,5-a][1,4]benzodiazepin-2-yl]-(3-methoxyazetidin-1-yl)methanone], the Ki stood at 4.5 nM in assay [1] (setting [5]), 4.49 nM in assay [1] (setting [6]), 772 nM in assay [2] and 1.8 nM in assay [4]. In addition, the “γ2/γ1 Selectivity Ratio” value in assay [2] is reported as 171.8. In assay [2], this molecule had a LogSel of 2.24. The “Efficacy (GABA)%” value in assay [3] stood at 47%. Moreover, the “Fold increase h-GABA-A α2β2γ1 oocyte @ 30-fold Ki” value in assay [3] is 1.47.
Turning to `COC1CN(C(=O)c2nc3n(n2)-c2ccc(Cl)c(Cl)c2C(c2ncccc2F)=N[C@H]3C)C1` [Example 38, [(4S)-7,8-dichloro-6-(3-fluoro-2-pyridyl)-4-methyl-4H-[1,2,4]triazolo[1,5-a][1,4]benzodiazepin-2-yl]-(3-methoxyazetidin-1-yl)methanone], the Ki in assay [1] (setting [5]) is 28.2 nM; in assay [1] (setting [6]), 28.2 nM; in assay [2], 2200 nM; in assay [4] it was 4.46 nM. In addition, the “γ2/γ1 Selectivity Ratio” value in assay [2] stood at 77.8. This molecule also registered a LogSel in assay [2] of 1.89. Also, in assay [3], the “Efficacy (GABA)%” value came to 116%. The “Fold increase h-GABA-A α2β2γ1 oocyte @ 30-fold Ki” value in assay [3] was 2.16.
`[2H]C([2H])([2H])OC1CN(C(=O)c2nc3n(n2)-c2ccc(Cl)c(Cl)c2C(c2ncccc2F)=N[C@H]3C)C1` [Example 39, [(4S)-7,8-dichloro-6-(3-fluoro-2-pyridyl)-4-methyl-4H-[1,2,4]triazolo[1,5-a][1,4]benzodiazepin-2-yl]-[3-(trideuteriomethoxy)azetidin-1-yl]methanone] showed a Ki in assay [1] (setting [5]) of 17.7 nM. Also, the affinity in assay [1] (setting [6]) corresponds to a Ki of 17.7 nM. In assay [2], the affinity, expressed as Ki, was 4200 nM; the “γ2/γ1 Selectivity Ratio” value came out at 237.9; the LogSel is 2.38. Also, in assay [3], the “Efficacy (GABA)%” value is 89% and the “Fold increase h-GABA-A α2β2γ1 oocyte @ 30-fold Ki” value amounted to 1.89. The molecule also gave a Ki in assay [4] of 6.85 nM.
Regarding `C[C@@H]1N=C(c2c(F)cccc2F)c2c(ccc(Cl)c2Cl)-n2nc(C(=O)N3CC(F)C3)nc21` [Example 40, [(4S)-7,8-dichloro-6-(2,6-difluorophenyl)-4-methyl-4H-[1,2,4]triazolo[1,5-a][1,4]benzodiazepin-2-yl]-(3-fluoroazetidin-1-yl)methanone], the Ki in assay [1] (setting [5]) was 7.4 nM. The affinity in assay [1] (setting [6]) corresponds to a Ki of 7.35 nM. Also, in assay [2], the Ki worked out at 672 nM, the “γ2/γ1 Selectivity Ratio” value was 91.4 and the LogSel was 1.96. In addition, in assay [3], the “Efficacy (GABA)%” value is 89% and the “Fold increase h-GABA-A α2β2γ1 oocyte @ 30-fold Ki” value is given as 1.89. Also, in assay [4], the inhibition constant Ki was determined as 0.9 nM.
Regarding `C[C@@H]1N=C(c2c(F)cccc2F)c2c(ccc(Cl)c2Cl)-n2nc(C(=O)N3CC(C#N)C3)nc21` [Example 41, 1-[(4S)-7,8-dichloro-6-(2,6-difluorophenyl)-4-methyl-4H-[1,2,4]triazolo[1,5-a][1,4]benzodiazepine-2-carbonyl]azetidine-3-carbonitrile], the Ki in assay [1] (setting [5]) is 3.3 nM. This molecule also showed a Ki in assay [1] (setting [6]) of 3.28 nM. For the same molecule, in assay [2], the Ki was 389 nM, the “γ2/γ1 Selectivity Ratio” value came out at 118.6 and the LogSel is recorded as 2.07. In assay [3], the “Efficacy (GABA)%” value is listed as 67% and the “Fold increase h-GABA-A α2β2γ1 oocyte @ 30-fold Ki” value was found to be 1.67. In assay [4], this molecule displayed a Ki of 0.74 nM.
